{
  "source": "patent EP0529395A2",
  "about": "“Benzamide multidrug resistance reversing agents” (Bristol-Myers Squibb Company, priority 1991, dated 1993)",
  "type_in_all_cases": "cell-based, human",
  "key": {"[1]": {"system": "MCF-7/ADR", "experiment": "Cytotoxic assay, MDR reversing effect with Adriamycin in resistant breast carcinoma cells", "method": "(§1) Cell Culture: HCT116/VM46 cells were selected from human colon carcinoma HCT116 cell line for resistance to VM26 and MCF-7/ADR cells were selected from human breast carcinoma MCF-7 cell line for resistance to Adriamycin. […] The cell lines were grown in tissue culture flasks containing McCoy's 5A medium and 10% fetal bovine serum. Cells were maintained at 37°C in a humidified atmosphere containing 5% C02 and subcultured every 5 days.\n(§2) Cytotoxic Assay: The cells were seeded in 96 well microtiter plates at 5x10^3 cells per well and allowed to grow for 24 hours at 37 °C. Cells were then incubated with decreasing amounts of antitumor agents: Adriamycin (100 µM, maximal concentration) or actinomycin D (17.6 ng/ml), for MCF-7 and HCT-116 cells, respectively. Chemosensitizers were added at variable concentrations ranging from 0.08 µM to […]. In parallel, verapamil was used as positive control at the same concentrations. After 48 hours of incubation, the cells were washed, fixed and stained with crystal violet. Absorbance was read by Molecular Devices' microtiter plate reader at the wavelength of 595nm. The IC50 value (50% inhibition of cell growth) was determined from relative survival rates resulted from two to three independent experiments. The term \"fold resistance\" was defined as the ratio of the IC50 for antitumor drug in the presence or absence of chemosensitizer in resistant cells divided by the IC50 for antitumor drug in its sensitive counterpart. This value provides an estimate of the apparent potency of each reversing agent in enhancing drug effect."}, "[2]": {"system": "HCT-116/VM46", "experiment": "Cytotoxic assay, MDR reversing effect with actinomycin D in resistant colon carcinoma cells", "method": "as §1, §2"}, "[3]": {"system": "HCT116", "experiment": "Cytotoxic assay, actinomycin D in sensitive colon carcinoma cells", "conditions": "no chemosensitizer", "method": "as §1\nas §2, with “The term \"fold resistance\" was defined as the ratio of the IC50 for antitumor drug in the presence or absence of chemosensitizer in resistant cells divided by the IC50 for antitumor drug in its sensitive counterpart. This value provides an estimate of the apparent potency of each reversing agent in enhancing drug effect.” left out"}, "[4]": {"conditions": "ActD IC50 in HCT-116/VM46 with chemosensitizer 0.4 μM divided by ActD IC50 in sensitive HCT116"}, "[5]": {"conditions": "ADR IC50 in MCF-7/ADR with chemosensitizer 0.67 µM divided by ADR IC50 in sensitive MCF-7"}},
  "note": "Starred links: 1 amine or outer side, 2 acyl side, 3 side chain; linkers in the order of their positions; H or OH if unused. Positions of bridges follow the written chain, without caps; N, C: chain ends. Non-standard residues stand in square brackets, D forms with d. Residues, ends and D or L forms follow the SMILES beside them. Chains are numbered I, II in the order given. Actinocin(9to1) = Cc1c2oc3c(C)ccc(C(=O)[*:1])c3nc-2c(C(=O)[*:2])c(N)c1=O; NMeV = CN[C@H](C(=O)O)C(C)C; Sar = CNCC(=O)O",
  "data": [
    {"compound": "COc1cccc2c1C(=O)c1c(O)c3c(c(O)c1C2=O)C[C@@](O)(C(=O)CO)C[C@@H]3O[C@H]1C[C@H](N)[C@H](O)[C@H](C)O1", "note": "[ADR, Adriamycin]", "values": [
      {"measurement": "IC50", "setting": "[1]; Homo sapiens, NCI/ADR-RES, 48 h, MCF-7/ADR cells, no chemosensitizer", "value": 50, "unit": "µM"},
      {"measurement": "Fold Resistance", "setting": "[1]; MCF-7/ADR versus MCF-7, ADR, no chemosensitizer", "value": 138.9}
    ]},
    {"compound": "Cc1c2oc3c(C)ccc(C(=O)N[C@@H]4C(=O)N[C@H](C(C)C)C(=O)N5CCC[C@H]5C(=O)N(C)CC(=O)N(C)[C@@H](C(C)C)C(=O)O[C@@H]4C)c3nc-2c(C(=O)N[C@@H]2C(=O)N[C@H](C(C)C)C(=O)N3CCC[C@H]3C(=O)N(C)CC(=O)N(C)[C@@H](C(C)C)C(=O)O[C@@H]2C)c(N)c1=O", "note": "[ActD, Actinomycin D] (I: T[dV]P[Sar][NMeV] / II: T[dV]P[Sar][NMeV]; ester I:1-I:C, II:1-II:C; linker I:N-II:N via Actinocin(9to1))", "values": [
      {"measurement": "ActD IC50", "setting": "[2]; HCT-116/VM46 cells, no chemosensitizer", "value": 10, "unit": "ng/mL"},
      {"measurement": "Fold Resistance", "setting": "[2]; HCT-116/VM46 versus HCT116, ActD, no chemosensitizer", "value": 20.0},
      {"measurement": "ActD IC50", "setting": "[3]", "value": 0.5, "unit": "ng/mL"}
    ]},
    {"compound": "COc1ccc(CCN(C)CCCC(C#N)(c2ccc(OC)c(OC)c2)C(C)C)cc1OC", "note": "(stereo not drawn) [Verapamil, verapamil]", "values": [
      {"measurement": "Fold Resistance", "setting": "[2]; [4]", "value": 11.6},
      {"measurement": "Fold Resistance", "setting": "[1]; [5]", "value": 63.9}
    ]},
    {"compound": "CCN(CC)CCNC(=O)c1cc(Cl)c(N)cc1OCCCc1ccccc1", "note": "[Ic, 4-Amino-5-chloro-N-[2-(diethylamino)ethyl]-2-[3-(phenyl)pronoxy]benzamide]", "values": [
      {"measurement": "Fold Resistance", "setting": "[2]; [4]", "value": 9.8}
    ]},
    {"compound": "CCN(CC)CCN(C(=O)c1cc(Cl)c(N)cc1Oc1ccc([N+](=O)[O-])cc1)c1ccc([N+](=O)[O-])cc1", "note": "[Ii, 4-Amino-5-chloro-N-[2-(diethylamino)ethyl]-2-(4-nitrophenoxy)-N-(4-nitrophenyl)benzamide]", "values": [
      {"measurement": "Fold Resistance", "setting": "[2]; [4]", "value": 9.8}
    ]},
    {"compound": "C/C=C/C(=O)Nc1cc(OCCSc2ccccc2)c(C(=O)NCCN(CC)CC)cc1Cl", "note": "[If, 5-Chloro-4-crotonylamino-N-[2-(diethylamino)ethyl]-2-[2-(phenylthio)ethoxy]benzamide]", "values": [
      {"measurement": "Fold Resistance", "setting": "[2]; [4]", "value": 4.8},
      {"measurement": "Fold Resistance", "setting": "[1]; [5]", "value": 28.6}
    ]},
    {"compound": "CCN(CC)CCN(C(=O)c1cc(Cl)c(N)cc1Oc1ccc(C(F)(F)F)cc1[N+](=O)[O-])c1ccc(C(F)(F)F)cc1[N+](=O)[O-]", "note": "[Ia]", "values": [
      {"measurement": "Fold Resistance", "setting": "[2]; [4]", "value": 11.0}
    ]}
  ]
}
